From patent US5919823A, “Treatment of secondary movement disorders using large neutral amino acids” (The Research Foundation For Mental Hygiene, priority 1997, dated 1999)
Read-outs that look alike come from different tables or passages of the source.

How the values were obtained:
[1] = cited from earlier work
[2] = in vivo; cited from earlier work
[3] = Multi-challenge study, videotaped TD movement counts (Study Four, Example 2); format: in vivo, male patients
Protocol: A single patient was exposed over a period of several weeks to multiple dietary challenges, at the rate of one baseline day and one challenge day per week.
The baseline days were Tuesdays and the challenge days were Wednesdays.
On both Tuesdays and Wednesdays a videotaped evaluation procedure for TD was conducted and videotaped TD movement count sessions were held. These were 2 hours post-coffee on Tuesday and 2 hours post challenge on Wednesday. Movement counts were blindly rated from the videotapes by the present inventor.
Evaluation sessions were conducted at the same time on both days with patients fasting (except for one cup of decaffeinated coffee) on the baseline days.
A carbohydrate challenge breakfast; 223 grams of carbohydrates, 1369 calories, less than 4% protein.
A 100 mg/kg challenge of Phe.
A BCAA dietary supplement as follows:
a) 2 patients had 209 mg/kg doses of BCAA powder given in orange juice
The BCAA powder given in orange juice and in the flavored formulation at 150 mg/kg and 275 mg/kg consisted of 30 parts--valine, 30 parts-isoleucineand 40 parts-leucine.

[4] = of the large neutral amino acids; cited from earlier work
[5] = Plasma large neutral amino acid and phenylethylamine levels, fasting and 2 hours after protein challenge (Study Two); conditions: for Plasma level, Post-loading / Plasma LNAA Ratio, Post-loading: 2 hours after protein challenge; for Plasma level, Post-loading / Plasma level, Fasting / Plasma LNAA Ratio, Post-loading / Plasma LNAA Ratio, Fasting: mean ± SD
Protocol: Blood samples were drawn from patients after an overnight fast and 2 hours after the ingestion of a protein challenge. This challenge was served in the form of a breakfast which consisted of orange juice, a cheese omelette, ham, a waffle and coffee.
The blood samples were assayed for the levels of plasma large neutral amino acids; phenylalanine, tyrosine, tryptophan, alanine, isoleucine, leucine, valine, histidine, and threonine, and for the levels of phenylethylamine. The latter was also measured because it is a major metabolite of phenylalanine and considered to be a neuromodulator.
The plasma amino acids, with the exception of tryptophan, were analyzed by phenylisothiocyanate (PITC) derivation followed by HPLC. The analysis of tryptophan was performed using HPLC with spectrofluormetric detection.
The plasma values of the amino acids were studied both as actual levels and as the ratio of phenylalanine level to the level of the other large neutral amino acids in the plasma. This ratio serves as an index of the entry of phenylalanine into the brain, which accounts for the competition of the other large neutral amino acids (LNAA) with phenylalanine (Phe) at the blood brain barrier, as discussed. previously. This ratio is calculated as follows: [formula]

[6] = after challenge administration, most of the subjects; cited from earlier work
[7] = Phenylalanine challenge, akathisia symptoms (Study Three, Example 4); format: in vivo, patients (psychotic males and females); conditions: 100 mg/kg
Protocol: (§1) A third study (Study Three) was a large scale replication of Study Two with some improved technical methodology; most importantly, the switch from a protein challenge to a phenylalanine challenge and the weight standardization of the phenylalanine challenge (100 mg/kg). This investigation was conducted in 209 psychotic males and 103 psychotic females. […] This finding was independent of the age of the patient.
(§2) As shown below, the data from this study has also enabled the present inventor to study the effect of the phenylalanine challenge on the symptom levels of Parkinsonism, akathisia and tardive dystonia. This information is important in justifying the usefulness of large neutral amino acid treatments for these disorders.
The large percentage (81.0%) of patients whose symptoms were impacted by the phenylalanine challenge supports the value of plasma large neutral amino acid manipulation in the treatment of this disorder. […] Patients without coexisting TD were more likely to show a higher level of symptom worsening than those with coexisting TD. As said for Parkinsonism, above, though it is the case that there is a case by case aspect to treatment success which makes prediction difficult, one can set forth some predictive generalizations as below: […]

[8] = Phenylalanine challenge, Parkinsonism symptoms (Study Three, Example 4); format: in vivo, patients (psychotic males and females); conditions: 100 mg/kg
Protocol: as §1, §2
185 (59.3%) of the study patients made criterion for a case of Parkinsonism; […]. […] The large percentage (88.6%) of patients whose symptoms were impacted by the phenylalanine challenge supports the value of plasma large neutral amino acid manipulation in the treatment of this disorder. Further, as is seen in Table 3 below, this pattern of change was quite similar whether or not the patient had coexisting tardive dyskinesia. Though there is a case by case aspect to treatment success which makes prediction difficult, one can set forth some predictive generalizations as below. A further caveat is that because of the possible case of the worsening of a coexisting disorder the clinician must first treat the disorder that is causing the patient the most difficulty. Difficulty would be defined by some interaction between severity of symptom and disorder.

[9] = Phenylalanine challenge, tardive dystonia symptoms (Study Three, Example 4); format: in vivo, patients (psychotic males and females); conditions: 100 mg/kg
Protocol: as §1, §2
Thus, more than a majority of patients (57.9%) did respond to the phenylalanine challenge. […] Patients without coexisting TD were much more likely to improve their tardive dystonia symptom status after a phenylalanine challenge than patients with coexisting TD, while patients with coexisting TD were much more likely to show a higher level of symptom worsening than those without coexisting TD.

[10] = Plasma phenylalanine response to phenylalanine challenge in TD-yes and TD-no patients (Study Three); format: in vivo, psychotic males and females; conditions: 100 mg/kg, TD Yes vs TD No patients
From the text: In this work (Study Two and Three) the plasma level tells us the actual level of phenylalanine in the blood and the phenylalanine/large neutral amino acid ratio gives us a marker relative to the other large neutral amino acids. This ratio thus provides information on brain levels of phenylalanine, or more specifically, the penetrance past the blood brain barrier of phenylalanine. This is so because it is known that phenylalanine competes with the other large neutral amino acids, such as tyrosine, tryptophan, isoleucine, leucine and valine for entry into the brain across the blood brain barrier.

serotonin receptors = conditions: animals; cited from earlier work
[11] = in vivo; cited from earlier work; remark: listed apart in the source
[12] = 2 hours, ALL (n=185), listed as Phenylalanine
[13] = TD Symptom Persistence group (n = 15)
[14] = TD Symptom Remission group (n = 15)

## N[C@@H](Cc1c[nH]c2ccc(O)cc12)C(=O)O [5-hydroxytryptophan]
[1]; seven patients, concomitant administration with carbidopa
  effect on TD: no change in TD

## NC(Cc1c[nH]c2ccccc12)C(=O)O [D-L tryptophan]
[1]; 4 patients
  effect on TD: no change in TD

## CN1CCN(C2=Nc3cc(Cl)ccc3Nc3ccccc32)CC1 [clozapine]
[2]
  movement disorder side-effects: less likely to result in movement disorder side-effects
  other side effects: carries the risk of other serious life-threatening side effects

## N[C@@H](Cc1ccccc1)C(=O)O [phenylalanine]
[3]; Patient B, coexisting TD and tardive dystonia
  TD symptom change: did not show a symptom increase
[3]; after Phe challenge 100 mg/kg
  patients with an increase in TD symptom severity: three out of four
[3]; after Phe challenge 100 mg/kg, three patients
  increase in TD symptom severity, range over patients: 69% to 440
[3]; after Phe challenge 100 mg/kg, listed as Phe
  patients with an increase in TD symptom severity: Three
[4]
  affinity for the blood brain barrier: highest affinity for the blood brain barrier
[5]; in vivo
  percentage change in plasma level: larger percentage changes
  post challenge phenylalanine to LNAA ratio: significantly higher
[6]
  time of peak phenylalanine plasma level: 2 h
[7]; 2 hours
  patients whose akathisia symptoms were impacted: 81.0%
[7]; 2 hours, ALL (n=105)
  Akathisia BETTER, %: 33.4%
  Akathisia BETTER, No.: 35 patients
  Akathisia NO CHANGE, %: 19.0%
  Akathisia NO CHANGE, No.: 20 patients
  Akathisia WORSE, %: 47.6%
  Akathisia WORSE, No.: 50 patients
[7]; TD-NO (n=42)
  Akathisia BETTER, %: 23.8%
  Akathisia BETTER, No.: 10
  Akathisia NO CHANGE, %: 16.7%
  Akathisia NO CHANGE, No.: 7
  Akathisia WORSE, %: 59.5%
  Akathisia WORSE, No.: 25
[7]; TD-YES (n=63)
  Akathisia BETTER, %: 39.7%
  Akathisia BETTER, No.: 25
  Akathisia NO CHANGE, %: 21.6%
  Akathisia NO CHANGE, No.: 13
  Akathisia WORSE, %: 39.7%
  Akathisia WORSE, No.: 25
[8]; 2 hours
  patients whose Parkinsonism symptoms were impacted: 88.6%
[8]; 2 hours, ALL (n=185)
  Parkinsonism BETTER, %: 42.7%
  Parkinsonism BETTER, No.: 79 patients
  Parkinsonism NO CHANGE, %: 11.3%
  Parkinsonism NO CHANGE, No.: 21 patients
  Parkinsonism WORSE, %: 45.9%
  Parkinsonism WORSE, No.: 85 patients
[8]; 2 hours, ALL (n=185), listed as Phe
  Parkinsonism WORSE, %: 46%
[8]; [12]
  Parkinsonism NO CHANGE, %: 11.4%
  Parkinsonism WORSE, %: 45.9%
[8]; TD-NO (n=84)
  Parkinsonism BETTER, %: 40.5%
  Parkinsonism BETTER, No.: 34
  Parkinsonism NO CHANGE, %: 13.1%
  Parkinsonism NO CHANGE, No.: 11
  Parkinsonism WORSE, %: 46.4%
  Parkinsonism WORSE, No.: 39
[8]; TD-YES (n=101)
  Parkinsonism BETTER, %: 44.5%
  Parkinsonism BETTER, No.: 45
  Parkinsonism NO CHANGE, %: 9.9%
  Parkinsonism NO CHANGE, No.: 10
  Parkinsonism WORSE, %: 45.6%
  Parkinsonism WORSE, No.: 46
[9]; 2 hours
  patients whose tardive dystonia responded to the phenylalanine challenge: 57.9%
[9]; 2 hours, ALL (n=19)
  Tardive dystonia BETTER, %: 21.0%
  Tardive dystonia BETTER, No.: 4 patients
  Tardive dystonia NO CHANGE, %: 42.1%
  Tardive dystonia NO CHANGE, No.: 8 patients
  Tardive dystonia WORSE, %: 36.9%
  Tardive dystonia WORSE, No.: 7 patients
[9]; TD-NO (n=5)
  Tardive dystonia BETTER, %: 60.0%
  Tardive dystonia BETTER, No.: 3
  Tardive dystonia NO CHANGE, %: 40.0%
  Tardive dystonia NO CHANGE, No.: 2
  Tardive dystonia WORSE, %: 0.0%
  Tardive dystonia WORSE, No.: none
[9]; TD-NO (n=5), listed as Phenylalanine
  Tardive dystonia WORSE, No.: 0
[9]; TD-YES (n=14)
  Tardive dystonia BETTER, %: 7.1%
  Tardive dystonia BETTER, No.: 1
  Tardive dystonia NO CHANGE, %: 42.9%
  Tardive dystonia NO CHANGE, No.: 6
  Tardive dystonia WORSE, %: 50.0%
  Tardive dystonia WORSE, No.: 7
[10]
  plasma phenylalanine and phenylalanine/LNAA ratio after phenylalanine challenge: statistically significant higher levels

## NCCc1ccccc1 [phenylethylamine, reference compound]
[5]; [13]
  Plasma level, Percent Change (Postloading/Fasting): +14.7%
  Plasma level, Post-loading: 0.0951 ± 0.0192 ng/mL
  Plasma level, Fasting: 0.0829 ± 0.0198 ng/mL
[5]; [14]
  Plasma level, Percent Change (Postloading/Fasting): +5.9%
  Plasma level, Post-loading: 0.0927 ± 0.0218 ng/mL
  Plasma level, Fasting: 0.0875 ± 0.0305 ng/mL
[5]; persistence group, but not in remission group
  phenylethylamine level change: significantly increased
Serotonin receptors
  motor effect: produces a motor syndrome which can be blocked by serotonin antagonists

## CC(C)NCC(O)COc1cccc2ccccc12 (centres unmarked) [propranolol]
[11]
  treatment of neuroleptic-induced akathisia: successful in some patients

## N[C@@H](Cc1c[nH]c2ccccc12)C(=O)O [tryptophan]
[5]; in vivo
  decrease in tryptophan/LNAA ratio, greater in remittance group: 35%
  magnitude of decrease in tryptophan/LNAA ratio: significantly greater
[1]; two case reports
  effect on TD: reduction of TD symptoms

## N[C@@H](Cc1ccc(O)cc1)C(=O)O [tyrosine]
[5]; [13]
  Plasma LNAA Ratio, Percent Change (Postloading/Fasting): 0%
  Plasma level, Percent Change (Postloading/Fasting): +23.1%
  Plasma LNAA Ratio, Post-loading: 0.103 ± 0.012
  Plasma level, Post-loading: 85.3 ± 22.6 µM
  Plasma LNAA Ratio, Fasting: 0.103 ± 0.012
  Plasma level, Fasting: 69.3 ± 14.8 µM
[5]; [14]
  Plasma LNAA Ratio, Percent Change (Postloading/Fasting): 0%
  Plasma level, Percent Change (Postloading/Fasting): +30.1%
  Plasma LNAA Ratio, Post-loading: 0.090 ± 0.020
  Plasma level, Post-loading: 84.3 ± 23.5 µM
  Plasma LNAA Ratio, Fasting: 0.090 ± 0.022
  Plasma level, Fasting: 64.8 ± 17.1 µM
[5]; symptom remission group vs persistence group, 30 males
  percentage change in plasma level: larger percentage changes

## CC(C)[C@H](N)C(=O)O [valine]
[5]; in vivo
  percentage change in plasma level: larger percentage changes
  valine/LNAA ratio change: increased significantly
